Source: article PMC12040169 (PLOS Biology, 2025)

Assay: in vitro
Conditions: human, hela cells, % viability

Row | SMILES | viability at 28.5 h, 10 µM
1 | O=C1c2ccc(Oc3ccc(Oc4ccc5c(c4)C(=O)N(c4cccnc4)C5=O)cc3)cc2C(=O)N1c1cccnc1 [CBK262195] | 95.7%
2 | COc1c(O)ccc(/C=N/NC(=O)c2cccnc2)c1[N+](=O)[O-] [CBK262197] | 112%
3 | O=[N+]([O-])c1cc(/C=N/Nc2nnn[nH]2)ccc1N1CCOCC1 [CBK262199] | 99.7%
4 | CC(C)(C)c1cc(C(=O)NCC(=O)NCC(=O)O)cc(C(C)(C)C)c1 [CBK262200] | 96%
5 | Cc1ccc(S(=O)(=O)c2cccc(S(=O)(=O)N3CCCCC3)c2)cc1S(=O)(=O)N1CCCCC1 [CBK262207] | 105%
6 | Cc1ccc(S(=O)(=O)NCC(Oc2ccc([N+](=O)[O-])cc2)c2ccccc2)cc1 (stereo not drawn) [CBK262208] | 101%
7 | O=C(CC(Nc1ccc2ccccc2c1)c1ccncc1)c1ccc(Br)cc1 (stereo not drawn) [CBK262209] | 98.7%
8 | O=C(COc1ccc(-c2ccccc2)cc1)N/N=C/c1ccncc1 [CBK262210] | 93.2%
9 | O=C(COc1ccc(I)cc1)N/N=C/c1cccc([N+](=O)[O-])c1 [CBK262211] | 95.2%
10 | Cc1ccc(C(CC(=O)N2CCN(Cc3ccccc3)CC2)c2ccccc2)c(O)c1C (stereo not drawn) [CBK262214] | 100%
11 | O=C(c1sc2ccccc2c1Cl)n1cnc2ccccc21 [CBK262216] | 101%
12 | Cc1[nH]c2ccccc2c1/C=C1/SC(=S)N(CC(=O)O)C1=O [CBK262220] | 118%
13 | Cc1cc(N(C)CCc2ccccc2)nc2cc(Cl)ccc12 [CBK262221] | 93.9%
14 | O=C1CCC(=O)N1CC(O)Cn1c2ccc(Cl)cc2c2cc(Cl)ccc21 (stereo not drawn) [CBK262222] | 90.5%
15 | O=C(NNc1nc(-c2ccccc2)cc(-c2ccccc2)n1)Nc1ccccc1 [CBK262223] | 91.3%
16 | O=C(O)/C(=N\c1cccc2ccccc12)c1ccccc1 [CBK262224] | 75.7%
17 | Cc1ccc(/C=N/NC(=O)C(C)Oc2ccccc2Br)o1 (stereo not drawn) [CBK262226] | 103%
18 | Cc1ccc(COc2ccc(/C=N/NC(=O)CN3CCCCC3)cc2)cc1 [CBK262227] | 103%
19 | C/C(=N\NC(=O)CN(c1ccc(C)cc1)S(=O)(=O)c1ccccc1)c1ccc(Cl)cc1 [CBK262229] | 93.3%
20 | Cc1cc(OCCCNCCO)ccc1Cl [CBK262230] | 95.4%
21 | COc1cc(/C=N/NC(=O)c2cccnc2)cc([N+](=O)[O-])c1O [CBK262233] | 86.4%
22 | CCC(Oc1ccccc1)C(=O)Nc1cc(OC)c(Cl)cc1OC (stereo not drawn) [CBK262235] | 112%

Row | SMILES | viability at 28.5 h, 10 µM
23 | COc1ccc(N(CC(=O)Nc2cccnc2)S(=O)(=O)c2ccccc2)cc1 [CBK262236] | 91.6%
24 | COc1ccc(/C=C/C(C)=C\C(=O)O)c(OC)c1 [CBK262237N] | 94.8%
25 | Nc1nc2ccccc2n1/N=C/c1ccc([N+](=O)[O-])cc1 [CBK262239] | 88%
26 | O=C(COc1ccccc1O)NCCN1CCOCC1 [CBK262243C] | 84%
27 | O=C1C2(c3ccccc3)CN3CN(C2)CC1(c1ccccc1)C3 [CBK262245] | 93.5%
28 | CN1CCN(S(=O)(=O)c2ccc(Oc3ccc([N+](=O)[O-])cc3)cc2)CC1 [CBK262248] | 105%
29 | COc1cc(/C=N/Nc2nnn[nH]2)cc2c1OCO2 [CBK262253] | 100%
30 | Cn1c2ccccc2c2cc(C(O)(CC(=O)CC(O)(c3ccc4c(c3)c3ccccc3n4C)C(F)(F)F)C(F)(F)F)ccc21 (stereo not drawn) [CBK262254] | 88%
31 | Cc1ccc(S(=O)(=O)N2CCOCC2)cc1C(=O)O [CBK262256] | 115%
32 | CCCCn1c(=O)c(C(=O)Nc2ccccc2S(N)(=O)=O)c(O)c2ccccc21 [CBK262260] | 98.6%
33 | COc1ccccc1CNCc1ccccn1 [CBK262261] | 89.4%
34 | O=C(O)/C=C/c1cccc(NS(=O)(=O)c2ccc(C(=O)O)cc2)c1 [CBK262262] | 88%
35 | C/C(=N/OCC(=O)N/N=C/c1sc2ccccc2c1O)c1ccccc1 [CBK262266] | 96.3%
36 | Cn1c(=O)c(C(=O)Nc2ccccc2S(N)(=O)=O)c(O)c2ccccc21 [CBK262267] | 85.5%
37 | COc1cccc(/C=N/NC(=O)C(=O)NCc2ccccn2)c1 [CBK262268] | 84.5%
38 | Cc1cc2nc(NC(=N)N)nc(C)c2cc1C [CBK262269] | 83.8%
39 | CCOC(=O)c1ccccc1NS(C)(=O)=O [CBK262271] | 101%
40 | Cc1ccccc1C(=O)NC(NCC1CCCO1)C(Cl)(Cl)Cl (stereo not drawn) [CBK262273] | 91.9%
41 | COc1ccc(C(=O)/C=C/c2ccc(N3N=C(c4ccccc4)CC3c3ccccc3)cc2)cc1 (stereo not drawn) [CBK262274] | 91.7%
42 | O=C(Nc1nnn[nH]1)C12CC3CC(CC(C3)C1)C2 [CBK262276] | 82.4%
43 | COc1cc(/C=N/NC(=O)c2ccncc2)ccc1OC(=O)c1cccs1 [CBK262278] | 103%
44 | COc1ccc(C(=O)NC(NCc2ccco2)C(Cl)(Cl)Cl)cc1 (stereo not drawn) [CBK262279] | 119%

Row | SMILES | viability at 28.5 h, 10 µM
45 | CC(C)=NNC(=O)CN(c1ccc(C)cc1)S(=O)(=O)c1ccccc1 [CBK262280] | 99.4%
46 | O=C1CC(N2CCN(c3ccccn3)CC2)C(=O)N1CCc1ccccc1 (stereo not drawn) [CBK262282] | 77.9%
47 | Brc1ccc(/C=N\c2ccc3c(c2)ncn3CCn2cnc3cc(/N=C/c4ccc(Br)cc4)ccc32)cc1 [CBK262285] | 83.9%
48 | COc1ccccc1/C=N/NC(=O)C(=O)NCc1ccccn1 [CBK262286] | 93.7%
49 | O=C(N/N=C/c1ccc(-c2ccc([N+](=O)[O-])cc2)o1)c1cccnc1 [CBK262287] | 92.3%
50 | CC(C)CCn1c(=O)c(C(=O)Nc2ccccc2S(N)(=O)=O)c(O)c2ccccc21 [CBK262294] | 104%
51 | Cc1ccc(Nc2nc(N/N=C/c3ccccc3)nc(N3CCC(Cc4ccccc4)CC3)n2)cc1 [CBK262296] | 76.7%
52 | O=C(Nc1c(Cl)cccc1Cl)c1ccc(-c2ccccc2)cc1 [CBK262300] | 94.5%
53 | NC(=O)CCn1c(=S)n(CCC(N)=O)c2ccccc21 [CBK262301] | 86.2%
54 | O=P(O)(CCc1ccccc1)CN1CCOCC1 [CBK262305] | 104%
55 | Cc1ccc(-c2cc(-c3ccccc3O)nc(N/N=C/c3cccnc3)n2)cc1 [CBK262308] | 85.2%
56 | CCOC(=O)c1c(NC(=O)Cc2ccccc2)sc2c1CCC2 [CBK262309] | 88.4%
57 | Cc1ccccc1-n1c(Cc2ccccc2)nc2c(cnn2-c2ccccc2)c1=O [CBK262310] | 91.6%
58 | O=C1CCCCCN1CP(=O)(O)CCc1ccccc1 [CBK262313] | 99.7%
59 | O=C(O)Cc1nn(Cc2ccccc2)c(=O)c2ccccc12 [CBK262315] | 115%
60 | O=P(O)(CCc1ccncc1)CN1CCOCC1 [CBK262317] | 89.3%
61 | O=C(Nc1ccccc1)Nc1ccc2c(c1)S(=O)(=O)c1cc(NC(=O)Nc3ccccc3)ccc1-2 [CBK262320] | 94.6%
62 | N#Cc1c(N)nc2c(c1-c1ccc(Cl)cc1)CCCCCCCCCC2 [CBK262322] | 90.6%
63 | O=P(O)(CN1CCCCC1)C1CCCCC1O (stereo not drawn) [CBK262325] | 87.1%
64 | O=C(CN1C(=O)CCC1=O)NCCc1ccccc1 [CBK262326] | 98.3%
65 | O=C1c2ccccc2S(=O)(=O)N1CC(O)Cn1c2ccc(Cl)cc2c2cc(Cl)ccc21 (stereo not drawn) [CBK262327] | 101%
66 | Cc1cccc(C)c1N(CC(=O)O)S(C)(=O)=O [CBK262329] | 102%

Row | SMILES | viability at 28.5 h, 10 µM
67 | COc1cc(/C=N/NC(=O)CCn2c3ccccc3c3ccccc32)ccc1O [CBK262332] | 73%
68 | Cc1ccc(C(=O)NCCCNc2ccc(Cl)cc2[N+](=O)[O-])cc1 [CBK262334] | 101%
69 | O=[N+]([O-])c1ccccc1N/C(=N/S(=O)(=O)c1ccccc1)c1ccccc1 [CBK262336] | 85.8%
70 | O=C(Nc1cccc(CCc2ccccn2)c1)Nc1cccc2ccccc12 [CBK262337] | 87.7%
71 | CC(CCCC(C)(C)O)NCCO (stereo not drawn) [CBK262340] | 96.3%
72 | CN1CCC(=NNC(=O)C(=O)NCc2ccco2)CC1 [CBK262341] | 84.6%
73 | O=C(Cn1c[n+]([N-][N+](=O)[O-])cn1)Nc1ncc(Br)cc1Br [CBK262342] | 90.9%
74 | Cc1ccc(NC(=O)CN(c2ccccc2)S(=O)(=O)c2ccccc2[N+](=O)[O-])cc1C [CBK262345] | 57.7%
75 | CC(C)N/C(=N/S(=O)(=O)c1ccccc1)c1ccccc1 [CBK262346] | 98.2%
76 | O=C1c2ccccc2S(=O)(=O)N1CC(O)Cn1c2ccc(Br)cc2c2cc(Br)ccc21 (stereo not drawn) [CBK262347] | 112%
77 | O=C(CCn1c(-c2ccccc2)c(-c2ccccc2)c2ccccc21)N/N=C/c1cccc(O)c1 [CBK262348] | 52.1%
78 | COc1ccc(-c2nc3c(n2O)CCc2c-3no[n+]2[O-])cc1OC [CBK262350] | 80.3%
79 | CN1C(=O)CC(NCc2ccc(S(N)(=O)=O)cc2)C1=O (stereo not drawn) [CBK262352] | 87.4%
80 | O=C(CCn1c(-c2ccccc2)c(-c2ccccc2)c2ccccc21)N/N=C/c1ccccc1O [CBK262353] | 66.9%
81 | COc1ccc(CCN2C(=O)CC(N3CCN(c4ccccc4)CC3)C2=O)cc1OC (stereo not drawn) [CBK262354] | 106%
82 | CCOC(=O)c1ccc(N/C=C(\C#N)c2nc(-c3cc4ccccc4oc3=O)cs2)cc1 [CBK262356] | 83.1%
83 | O=C(O)c1ccc(S(=O)(=O)NCc2ccc3c(c2)OCO3)cc1 [CBK262360] | 97%
84 | O=C(O)COc1ccc(Br)cc1/C=N/Nc1cccc2cccnc12 [CBK262362] | 112%
85 | Cc1ccc2[nH]c3nc(N/N=C/c4ccc(-c5cccc([N+](=O)[O-])c5)o4)nnc3c2c1 [CBK262365] | 106%
86 | N#C/C(=C\Nc1ccc(S(N)(=O)=O)cc1)c1nc(-c2cccc([N+](=O)[O-])c2)cs1 [CBK262366] | 115%
87 | O=C(O)COc1ccc(Br)cc1/C=N/Nc1ccccn1 [CBK262369] | 102%
